Values after ≈ are worked out from the molar mass of the structure shown.
Columns and labels:
Type in all cases: cell-based
[1] = system: M. massiliense CIP 108297; test: MIC, resazurin microtiter assay; details: for MIC: Mycobacteroides abscessus, CIP108297, Mueller Hinton II, read-out: MIC M. massiliense CIP 108297
M. massiliense CRM 0019 = test: MIC, resazurin microtiter assay; details: for MIC: Mycobacteroides abscessus, CRM0019, Mueller Hinton II, read-out: MIC M. massiliense CRM 0019
M. abscessus DCI #21 = test: MIC, resazurin microtiter assay; details: Mueller Hinton II; for MIC: Mycobacteroides abscessus, read-out: MIC M. abscessus DCI #21
M. xenopi WT = test: MIC, resazurin microtiter assay; details: Mycobacterium xenopi, Mueller Hinton II; read-out: MIC M. xenopi WT
M. smegmatis mc^2155 = test: MIC, resazurin microtiter assay; details: for MIC: Mycolicibacterium smegmatis, MC^2155, 7H9-ADC-0.05% Tween 80, read-out: MIC M. smeg. mc^2155
M. chelonae ATCC 35752 = test: MIC, resazurin microtiter assay; details: for MIC: Mycobacteroides chelonae, ATCC35752, Mueller Hinton II, read-out: MIC M. chelonae ATCC 35752
M. avium 104 = test: MIC, resazurin microtiter assay; details: Mycobacterium avium, 104; Mueller Hinton II; read-out: MIC M. avium 104
M. intracellulare 1956 = test: MIC, resazurin microtiter assay; details: Mueller Hinton II; read-out: MIC M. avium Intracellulare 1956
M. bolletii ATCC 14472 = test: MIC, resazurin microtiter assay; details: for MIC: Mycobacteroides abscessus, ATCC14472, Mueller Hinton II, read-out: MIC M. bolletii ATCC 14472
M. abscessus ATCC 19977 = test: MIC, resazurin microtiter assay; details: Mueller Hinton II; for MIC: Mycobacteroides abscessus, ATCC19977, read-out: MIC M. abscessus ATCC 19977
[2] = system: M. tuberculosis H37Rv mc^26206; test: microbe, parasite or virus in culture; details: for MIC: Mycobacterium tuberculosis, H37RV, read-out: MIC M. tb H37 Rv (mc2-6206)

| SMILES | MIC [1] [µg/mL] | MIC (M. massiliense CRM 0019) [µg/mL] | MIC (M. abscessus DCI #21) [µg/mL] | MIC (M. xenopi WT) [µg/mL] | MIC (M. smegmatis mc^2155) [µg/mL] | MIC (M. chelonae ATCC 35752) [µg/mL] | MIC (M. avium 104) [µg/mL] | MIC (M. intracellulare 1956) [µg/mL] | MIC (M. bolletii ATCC 14472) [µg/mL] | MIC (M. abscessus ATCC 19977) [µg/mL] | MIC [2] [µg/mL] | MIC M. massiliense CIP 108297 ([1]; Mueller Hinton II) [µg/mL] | MIC M. massiliense CRM 0019 (M. massiliense CRM 0019; Mueller Hinton II) [µg/mL] | MIC M. abscessus DCI #21 (M. abscessus DCI #21) [µg/mL] | MIC M. smeg. mc^2155 (M. smegmatis mc^2155; 7H9-ADC-0.05% Tween 80) [µg/mL] | MIC M. chelonae ATCC 35752 (M. chelonae ATCC 35752; Mueller Hinton II) [µg/mL] | MIC M. tb H37 Rv (mc2-6206) [2] [µg/mL] | MIC M. bolletii ATCC 14472 (M. bolletii ATCC 14472; Mueller Hinton II) [µg/mL] | MIC M. abscessus ATCC 19977 (M. abscessus ATCC 19977) [µg/mL] |
| --- | --- | --- | --- | --- | --- | --- | --- | --- | --- | --- | --- | --- | --- | --- | --- | --- | --- | --- | --- |
| Cc1cc(C)c2cc(C(=O)NC34CC5CC(CC(C5)C3)C4)[nH]c2c1 [Compound 20, N-1-adamantyl-4,6-dimethyl-1H-indole-2-carboxamide] | > 32 | > 32 | 32 (≈ 99.2 µM) | > 32 | 1.25 to 2.5 (≈ 3.88 to 7.75 µM) | > 32 | > 32 | > 32 | > 32 | > 32 | – | – | – | – | – | – | – | – | – |
| O=C(NC1C2CC3CC(C2)CC1C3)c1cc2ccccc2[nH]1 (stereo not shown) [Compound 9, N-(2-adamantyl)-1H-indole-2-carboxamide] | > 32 | 32 (≈ 109 µM) | > 32 | 2 (≈ 6.79 µM) | > 25 | > 32 | > 32 | > 32 | 32 (≈ 109 µM) | > 32 | 0.39 (≈ 1.32 µM) | – | – | – | – | – | – | – | – |
| O=C(NC1CCCCC1)c1cc2ccccc2[nH]1 [Compound 12, N-cyclohexyl-1H-indole-2-carboxamide] | > 32 | > 32 | > 32 | – | > 25 | > 32 | – | – | > 32 | > 32 | > 10 | – | – | – | – | – | – | – | – |
| CCCCCCCCNC(=O)c1cc2ccccc2[nH]1 [Compound 18, N-octyl-1H-indole-2-carboxamide] | > 32 | > 32 | > 32 | – | > 25 | > 32 | – | – | > 32 | > 32 | > 10 | – | – | – | – | – | – | – | – |
| CCC12CC3CC(C1)CC(NC(=O)c1cc4ccccc4[nH]1)(C3)C2 [Compound 6, N-(3-ethyl-1-adamantyl)-1H-indole-2-carboxamide] | > 32 | > 32 | > 32 | 1 to 2 (≈ 3.1 to 6.2 µM) | > 20 | > 32 | > 32 | > 32 | > 32 | > 32 | 1.25 (≈ 3.88 µM) | – | – | – | – | – | – | – | – |
| CCC12CC3CC(C1)CC(NC(=O)c1cc4c(C)cc(C)cc4[nH]1)(C3)C2 [Compound 21, N-(3-ethyl-1-adamantyl)-4,6-dimethyl-1H-indole-2-carboxamide] | > 32 | > 32 | > 32 | > 32 | > 20 | > 32 | > 32 | > 32 | > 32 | > 32 | – | – | – | – | – | – | – | – | – |
| CC1CCC(NC(=O)c2cc3ccccc3[nH]2)CC1 (stereo not shown) [Compound 15] | – | – | – | 16 (≈ 62.4 µM) | – | – | > 32 | > 32 | – | – | – | 16 (≈ 62.4 µM) | 16 (≈ 62.4 µM) | >32 | 12.5 (≈ 48.8 µM) | 16 (≈ 62.4 µM) | 5 (≈ 19.5 µM) | 16 (≈ 62.4 µM) | >32 |
| Cc1cc(C)c2cc(C(=O)NC3CCCC3)[nH]c2c1 [Compound 28, N-cyclopentyl-4,6-dimethyl-1H-indole-2-carboxamide] | 8 (≈ 31.2 µM) | 8 (≈ 31.2 µM) | 4 (≈ 15.6 µM) | 8 to 16 (≈ 31.2 to 62.4 µM) | 5 (≈ 19.5 µM) | 2 (≈ 7.8 µM) | > 32 | > 32 | 2 (≈ 7.8 µM) | 4 (≈ 15.6 µM) | 2.5 (≈ 9.75 µM) | – | – | – | – | – | – | – | – |
| O=C(NCC12CC3CC(CC(C3)C1)C2)c1cc2ccccc2[nH]1 [Compound 8, N-(1-(1-adamantyl)methyl)-1H-indole-2-carboxamide] | 2 (≈ 6.48 µM) | > 32 | 2 (≈ 6.48 µM) | 4 (≈ 13 µM) | > 20 | 1 (≈ 3.24 µM) | > 32 | > 32 | 2 (≈ 6.48 µM) | 2 (≈ 6.48 µM) | > 5 | – | – | – | – | – | – | – | – |
| O=C(NC1CCCCCC1)c1cc2ccccc2[nH]1 [Compound 11, N-cycloheptyl-1H-indole-2-carboxamide] | > 32 | > 32 | > 32 | – | > 20 | > 32 | – | – | > 32 | > 32 | > 5 | – | – | – | – | – | – | – | – |
| Cc1cc(C)c2cc(C(=O)NC(C)C34CC5CC(CC(C5)C3)C4)[nH]c2c1 (stereo not shown) [Compound 22, N-(1-(1-adamantyl)ethyl)-4,6-dimethyl-1H-indole-2-carboxamide] | 8 (≈ 22.8 µM) | 8 (≈ 22.8 µM) | > 32 | > 32 | > 20 | 16 (≈ 45.6 µM) | > 32 | > 32 | 16 (≈ 45.6 µM) | 16 (≈ 45.6 µM) | – | – | – | – | – | – | – | – | – |
| Cc1cc(C)c2cc(C(=O)NC3CCCCC3)[nH]c2c1 [Compound 27, N-cyclohexyl-4,6-dimethyl-1H-indole-2-carboxamide] | 0.25 (≈ 0.925 µM) | 0.25 (≈ 0.925 µM) | 0.25 (≈ 0.925 µM) | 1 to 2 (≈ 3.7 to 7.4 µM) | 2.5 (≈ 9.25 µM) | 0.25 (≈ 0.925 µM) | > 32 | > 32 | 0.25 (≈ 0.925 µM) | 0.5 (≈ 1.85 µM) | – | – | – | – | – | – | – | – | – |
| O=C(NCc1cccc(Cl)c1)c1cc2ccccc2[nH]1 [Compound 19, N-(3-chlorobenzyl)-1H-indole-2-carboxamide] | > 32 | > 32 | > 32 | – | > 20 | > 32 | – | – | > 32 | > 32 | > 5 | – | – | – | – | – | – | – | – |
| Cc1cc(C)c2cc(C(=O)NCC34CC5CC(CC(C5)C3)C4)[nH]c2c1 [Compound 23, N-(1-(1-adamantyl)methyl)-4,6-dimethyl-1H-indole-2-carboxamide] | > 32 | > 32 | > 32 | 1 (≈ 2.97 µM) | > 20 | > 32 | > 32 | > 32 | > 32 | > 32 | – | – | – | – | – | – | – | – | – |
| CCCCCCCCNC(=O)c1cc2c(C)cc(C)cc2[nH]1 [Compound 33, N-octyl-4,6-dimethyl-1H-indole-2-carboxamide] | > 32 | > 32 | > 32 | > 32 | 2.5 to 5 (≈ 8.32 to 16.6 µM) | > 32 | > 32 | > 32 | > 32 | > 32 | > 20 | – | – | – | – | – | – | – | – |
| CCCCCCCNC(=O)c1cc2c(C)cc(C)cc2[nH]1 [Compound 32, N-heptyl-4,6-dimethyl-1H-indole-2-carboxamide] | > 32 | > 32 | > 32 | > 32 | 5 (≈ 17.5 µM) | > 32 | > 32 | > 32 | 32 (≈ 112 µM) | > 32 | > 5 | – | – | – | – | – | – | – | – |
| CCCCCCCNC(=O)c1cc2ccccc2[nH]1 [Compound 17, N-heptyl-1H-indole-2-carboxamide] | > 32 | > 32 | > 32 | – | > 25 | > 32 | – | – | > 32 | > 32 | > 10 | – | – | – | – | – | – | – | – |
| Cc1cc(C)c2cc(C(=O)NC3CCC(C)CC3)[nH]c2c1 (stereo not shown) [Compound 29, 4,6-dimethyl-N-((1s,4s)-4-methylcyclohexyl)-1H-indole-2-carboxamide] | ≤ 0.06 | ≤ 0.06 | ≤ 0.06 | 0.25 to 1 (≈ 0.879 to 3.52 µM) | > 20 | ≤ 0.06 | > 32 | > 32 | ≤ 0.06 | ≤ 0.06 | – | – | – | – | – | – | – | – | – |
| O=C(NC1CCCC1)c1cc2ccccc2[nH]1 [Compound 13, N-cyclopentyl-1H-indole-2-carboxamide] | > 32 | > 32 | > 32 | – | > 25 | > 32 | – | – | > 32 | > 32 | > 10 | – | – | – | – | – | – | – | – |
| Cc1cc(C)c2cc(C(=O)NCc3cccc(Cl)c3)[nH]c2c1 [Compound 34, N-(3-chlorobenzyl)-4,6-dimethyl-1H-indole-2-carboxamide] | > 32 | > 32 | > 32 | – | > 20 | > 32 | – | – | > 32 | > 32 | > 5 | – | – | – | – | – | – | – | – |
| CC1CCC(NC(=O)c2cc3ccccc3[nH]2)CC1 (stereo not shown) [Compound 14, N-((1s,4s)-4-methylcyclohexyl)-1H-indole-2-carboxamide] | > 32 | > 32 | > 32 | – | > 25 | > 32 | – | – | > 32 | > 32 | > 10 | – | – | – | – | – | – | – | – |
| Cc1cc(C)c2cc(C(=O)NC3C4CC5CC(C4)CC3C5)[nH]c2c1 (stereo not shown) [Compound 24, N-2-adamantyl-4,6-dimethyl-1H-indole-2-carboxamide] | > 32 | > 32 | > 32 | 0.5 to 1 (≈ 1.55 to 3.1 µM) | > 20 | > 32 | > 32 | > 32 | > 32 | > 32 | – | – | – | – | – | – | – | – | – |
